For one molecule, IC50 results are on record in patent publication EP0298466A2, “Substituted alkene carboxylic acid amides and derivatives” (F. HOFFMANN-LA ROCHE AG, priority 1987, dated 1989).

In this assay the target is T1, Thromboxane Synthase (TXA₂ syn.) (Homo sapiens, UniProt P24557).
T1 construct: using microsomal fractions from human platelets as enzyme source; from tissue; host or cells: microsomal fraction of human platelets
T1 sequence (P24557 1-533): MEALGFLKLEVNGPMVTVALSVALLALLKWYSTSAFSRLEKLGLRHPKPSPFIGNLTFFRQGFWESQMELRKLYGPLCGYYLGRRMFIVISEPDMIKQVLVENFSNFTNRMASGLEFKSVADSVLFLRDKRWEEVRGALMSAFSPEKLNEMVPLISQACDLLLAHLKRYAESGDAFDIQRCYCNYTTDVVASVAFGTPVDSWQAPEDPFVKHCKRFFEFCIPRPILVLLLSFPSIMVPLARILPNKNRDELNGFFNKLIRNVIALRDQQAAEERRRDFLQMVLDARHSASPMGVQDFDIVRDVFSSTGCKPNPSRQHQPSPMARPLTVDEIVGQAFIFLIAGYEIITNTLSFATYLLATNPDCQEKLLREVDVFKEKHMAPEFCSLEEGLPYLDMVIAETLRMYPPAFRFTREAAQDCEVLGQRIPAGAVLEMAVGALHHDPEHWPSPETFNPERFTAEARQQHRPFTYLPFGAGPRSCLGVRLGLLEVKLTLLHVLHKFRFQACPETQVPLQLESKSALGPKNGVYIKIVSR
Briefly: TXA₂ Synthesis Inhibition (microsomal fractions from human platelets). Format: biochemical. Particulars: human platelet microsomes, ¹⁴C-PGH₂ 10µM, 22° for 2 minutes; read-out: Inhibition of TXA₂ Synthetase IC₅₀. How it is done: Thromboxane Synthase (TXA₂ syn.) inhibitory activity is measured by following the conversion of […] using microsomal fractions from human platelets as enzyme source. In the aqueous incubation medium, the TXA₂ decomposes rapidly into TXB₂. The amount of TXA₂ syn, is adjusted so that under the conditions of the assay approximately 80-90% of the substrate, PGH₂, is converted to product in control tubes. To prepare ¹⁴C-PGH₂, ¹⁴C-AA(50-60mCi/mmole) is incubated with sheep seminal vesicular gland microsomes for 1.5 min, at 37° and then the ¹⁴C-PGH₂ is extracted with diethylether, purified on columns of Sephadex LH-20 or silicic acid, and stored in acetone at -70°C. Incubations are done as follows, Sufficient ¹⁴C-PGH₂ to yield a final substrate concentration of 10µM (about 30,000 cpm) is added to the incubation tubes and then the acetone is removed under nitrogen. The tubes are placed in an ice bath and then 215 µl of ice cold phosphate buffered saline, 10 µl of ethanol (control) or of test drug in ethanol and 25 µl of the microsomal suspension are added with mixing in that order as rapidly as possible. The tubes are incubated at 22° for 2 minutes, the reaction is stopped and then the radioactive products and the unconverted PGH₂ are extracted and analyzed by thin layer chromatography. The amount of ¹⁴C-PGH₂ converted to products is analyzed by thin layer chromatography. The amount of ¹⁴C-PGH₂ converted to products was used as a measure of TXA₂ synthase activity. Inhibitors were tested initially at a concentration of 100 µM. IC₅₀ values were calculated by linear regression analysis of successive 10 fold dilutions of the test compound concentration.

pIC50: −log10 of the molar value.

`O=C(CCCCCCC=C(c1ccccc1)c1ccccc1)NCCCCc1cccnc1` [9,9-Diphenyl-N-[4-(3-pyridinyl)butyl]-8-nonenamide]: the pIC50 is 7.00 to 8.00.
